The text below walks through data of publication PMC10897926 (Journal of Natural Products, 2024).

The test system of data set [1] is P. falciparum (strain W2) asexual blood stage parasites. The experiment in a line: microbe, parasite or virus in culture. The data set is classed as cell-based, Plasmodium falciparum.
The subject of another data set is P. vivax liver schizonts. Description: microbe, parasite or virus in culture. The data set is classed as cell-based, Plasmodium vivax.
A further data set concerns P. vivax hypnozoites. The experiment in a line: microbe, parasite or virus in culture. The data set is classed as cell-based, Plasmodium vivax.
Data set [2] concerns primary human hepatocytes.
The nature of data set [3]: in vitro. The following applies: human.
Data set [4] can be described thus: in vitro. The following applies: human. The source holds these as a separate data set.
Setting [5] is: Plasmodium vivax, Hepatocyte, 288 h, read-out: P. vivax schizont EC50.
[6] abbreviates: Plasmodium vivax, read-out: P. vivax schizont pEC50 (converted).
The mark [7] stands for this setting: Plasmodium vivax, Hepatocyte, 288 h, read-out: P. vivax hypnozoite EC50.
The mark [8] stands for this setting: Plasmodium vivax, read-out: P. vivax hypnozoite pEC50 (converted).

Like-named read-outs stand apart in the source and are kept apart here. Some results are limits rather than exact numbers.

Regarding `C[C@H]1[C@@H](O)O[C@@H]2O[C@@]3(C)CC[C@H]4[C@H](C)CC[C@@H]1[C@@]24OO3` [dihydroartemisinin], the EC50 was 1.44 nM in data set [1] (Plasmodium falciparum, W2, 72 h, read-out: P. falciparum ABS (W2) EC50) and 1.45 nM in data set [1] (Plasmodium falciparum, W2, 72 h, read-out: P. falciparum ABS (W2) pEC50 (converted)).
For the molecule `CC(=O)OC[C@]12CCC(C)=C[C@H]1O[C@@H]1[C@H](O)[C@@H](OC(C)=O)[C@@]2(C)[C@]12CO2` [anguidine, diacetoxyscirpenol], the EC50 came out at 6.16 nM in data set [1] (read-out: P. falciparum ABS (W2) EC50), 13.5 nM in the data set with P. vivax liver schizonts (read-out: P. vivax schizont EC50) and 36.3 nM in the data set with P. vivax hypnozoites (read-out: P. vivax hypnozoite EC50). In addition, the “P. vivax hypnozoite pEC50” value in the data set with P. vivax hypnozoites was 36.3 (7.44 ± 0.75). For the same molecule, the “HepG2 Tox pCC50” value with HepG2 cells is given as 27.5 (7.56 ± 0.08). The “cytotoxicity (in words)” value in the data set with HepG2 cells is recorded as “cytotoxic”. The CC50 is 27.5 nM in the data set with HepG2 cells (read-out: HepG2 Tox CC50) and 380 nM in data set [2] (read-out: PHH Tox CC50). Moreover, the “PHH Tox pCC50” value in data set [2] is listed as 380 (6.42 ± 0.31).
In the case of `COc1ccc(C[C@H](N)C(=O)N[C@H]2[C@@H](O)[C@H](n3cnc4c(N(C)C)ncnc43)O[C@@H]2CO)cc1` [puromycin], the EC50 in the data set with P. vivax liver schizonts (setting [5]) was 2290 nM; with P. vivax liver schizonts (setting [6]) it was 2290 nM; in the data set with P. vivax hypnozoites (setting [7]), 776 nM; in the data set on P. vivax hypnozoites (setting [8]) it was 776 nM. In addition, the CC50 was 398 nM in “in vitro [3]” (HepG2 Tox CC50), 398 nM in “in vitro [3]” (HepG2 Tox pCC50), 1740 nM in “in vitro [4]” (PHH Tox CC50) and 1740 nM in “in vitro [4]” (PHH Tox pCC50).
For `CO[C@@H]1C[C@@H](C[C@H]2CC[C@H](C)[C@H]([C@@H](C)C(=O)O)O2)O[C@]2(O[C@](C)([C@H]3CC[C@@](C)([C@@H]4O[C@@H]([C@H]5O[C@@](O)(CO)[C@H](C)C[C@@H]5C)C[C@@H]4C)O3)C[C@H]2C)[C@@H]1C` [nigericin], the EC50 with P. vivax liver schizonts (setting [5]) was 5.13 nM; in the data set on P. vivax liver schizonts (setting [6]) it was 5.13 nM; in the data set with P. vivax hypnozoites (setting [7]), 12.3 nM; in the data set with P. vivax hypnozoites (setting [8]), 12.3 nM. Moreover, the “PHH Tox pCC50” value in data set [2] (human) is listed as >200 (6.70 ± 0.00). For the same molecule, the CC50 in the data set “in vitro [4]” (PHH Tox CC50) was above 200 nM.

For orientation: CC50 means the concentration at which the toxic effect on the cells reaches its halfway point.
